From ChEMBL document CHEMBL6121069, “A Medicinal Chemistry Perspective on Protein Tyrosine Phosphatase Nonreceptor Type 2 in Tumor Immunology” (J Med Chem, 2025)

Legend:
[1] = biological target: T1, Tyrosine-protein phosphatase non-receptor type 2 (Homo sapiens, UniProt P17706)
T1 sequence (P17706 whole entry): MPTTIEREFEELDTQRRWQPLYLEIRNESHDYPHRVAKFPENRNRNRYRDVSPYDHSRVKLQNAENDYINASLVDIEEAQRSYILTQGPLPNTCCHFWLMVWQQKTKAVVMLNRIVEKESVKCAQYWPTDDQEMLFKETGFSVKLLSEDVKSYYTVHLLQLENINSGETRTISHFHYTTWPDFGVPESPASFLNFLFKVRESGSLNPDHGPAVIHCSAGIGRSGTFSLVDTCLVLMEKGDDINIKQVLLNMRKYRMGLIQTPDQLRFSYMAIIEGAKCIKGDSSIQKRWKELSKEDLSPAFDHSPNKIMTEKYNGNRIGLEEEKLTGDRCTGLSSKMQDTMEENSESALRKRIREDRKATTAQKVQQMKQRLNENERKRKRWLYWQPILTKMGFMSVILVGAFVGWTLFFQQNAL
Description: Binding affinity to PTPN2 (unknown origin) assessed as inhibition constant

[2] = biological target: T2, Tyrosine-protein phosphatase non-receptor type 1 (Homo sapiens, UniProt P18031)
T2 sequence (P18031 whole entry): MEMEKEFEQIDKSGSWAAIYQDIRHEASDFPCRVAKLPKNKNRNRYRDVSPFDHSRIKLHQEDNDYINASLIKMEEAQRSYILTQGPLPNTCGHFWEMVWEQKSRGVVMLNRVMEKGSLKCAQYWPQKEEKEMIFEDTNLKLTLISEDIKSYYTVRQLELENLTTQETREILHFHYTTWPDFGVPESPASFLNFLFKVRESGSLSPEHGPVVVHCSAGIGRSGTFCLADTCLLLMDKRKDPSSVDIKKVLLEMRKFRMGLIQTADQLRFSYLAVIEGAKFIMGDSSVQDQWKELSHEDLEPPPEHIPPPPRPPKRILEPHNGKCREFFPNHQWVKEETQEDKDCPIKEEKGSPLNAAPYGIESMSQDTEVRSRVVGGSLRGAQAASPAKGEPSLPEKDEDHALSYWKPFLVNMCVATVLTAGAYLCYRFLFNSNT
Description: Binding affinity to PTP1B (unknown origin) assessed as inhibition constant

[3] = biological target: T1, Tyrosine-protein phosphatase non-receptor type 2; remark: listed apart in the source
Description: (§1) Inhibition of wild type FLAG-tagged PTPN2 (unknown origin) extracted from Escherichia coli BL21 (DE3) by micro-plate reader assay

[4] = biological target: T1, Tyrosine-protein phosphatase non-receptor type 2; remark: listed apart in the source
Description: as §1

[5] = biological target: T2, Tyrosine-protein phosphatase non-receptor type 1; remark: listed apart in the source
Description: Inhibition of PTP1B (unknown origin)

[6] = biological target: T3, Protein cereblon/Tyrosine-protein phosphatase non-receptor type 2 (Homo sapiens, UniProt P17706+Q96SW2); details: hek293t
T3 sequence (Q96SW2 whole entry, one chain of several): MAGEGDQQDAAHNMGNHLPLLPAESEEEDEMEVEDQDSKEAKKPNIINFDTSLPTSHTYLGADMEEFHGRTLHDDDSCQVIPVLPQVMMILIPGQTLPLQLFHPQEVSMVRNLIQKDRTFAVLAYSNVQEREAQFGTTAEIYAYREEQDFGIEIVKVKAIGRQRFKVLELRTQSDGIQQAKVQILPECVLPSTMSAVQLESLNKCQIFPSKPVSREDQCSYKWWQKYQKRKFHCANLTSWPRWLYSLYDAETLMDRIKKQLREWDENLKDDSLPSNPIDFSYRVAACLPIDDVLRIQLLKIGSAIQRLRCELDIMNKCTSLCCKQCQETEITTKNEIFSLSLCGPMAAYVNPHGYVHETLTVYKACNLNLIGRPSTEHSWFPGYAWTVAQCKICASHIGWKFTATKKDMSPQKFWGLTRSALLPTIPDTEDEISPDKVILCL
Description: PROTAC activity at PTPN2/CRBN in HEK293T cells assessed as protein degradation measured for 48 hrs by Western blot analysis

[7] = biological target: Protein cereblon/Tyrosine-protein phosphatase non-receptor type 1 (Homo sapiens, UniProt P18031+Q96SW2); details: hek293t
Sequence of Protein cereblon/Tyrosine-protein phosphatase non-receptor type 1 (Q96SW2 whole entry, one chain of several): as above
Description: PROTAC activity at PTP1B/CRBN in HEK293T cells assessed as maximal protein degradation at 10 uM measured for 48 hrs by Western blot analysis relative to control

[8] = biological target: T1, Tyrosine-protein phosphatase non-receptor type 2; remark: listed apart in the source
Description: Inhibition of full length human recombinant PTPN2 by mobility shift assay

[9] = biological target: T1, Tyrosine-protein phosphatase non-receptor type 2; remark: listed apart in the source
Description: Inhibition of His-tagged PTPN2 (unknown origin) by mobility shift assay

B16-F10 [10] = test: cells; details: Mus musculus
Description: Antiproliferative activity against mouse B16-F10 cells assessed as reduction in cell growth

[11] = biological target: T1, Tyrosine-protein phosphatase non-receptor type 2; remark: listed apart in the source
Description: Inhibition of PTPN2 (unknown origin)

[12] = biological target: T1, Tyrosine-protein phosphatase non-receptor type 2; remark: listed apart in the source
Description: Inhibition of full length human recombinant PTPN2 using DiFMUP as substrate

B16-F10 [13] = test: cells; details: Mus musculus; remark: listed apart in the source
Description: Antiproliferative activity against mouse B16-F10 cells

[14] = biological target: T3, Protein cereblon/Tyrosine-protein phosphatase non-receptor type 2; details: hek293t; remark: listed apart in the source
Description: PROTAC activity at PTPN2/CRBN in HEK293T cells assessed as induction of PTPN2 degradation incubated for 24 hrs by Nan-glo HiBiT lytic assay

B16-F10 [15] = test: animal or person; details: Mus musculus, B16-F10, 360 h, read-out: TGI
[16] = biological target: T1, Tyrosine-protein phosphatase non-receptor type 2; remark: listed apart in the source
Description: Inhibition of PTPN2 (unknown origin) using DiFMUP as substrate incubated for 30 mins by fluorescence based analysis

[17] = biological target: T1, Tyrosine-protein phosphatase non-receptor type 2; remark: listed apart in the source
Description: Inhibition of PTPN2 (unknown origin) using DiFMUP as substrate pre-incubated for 15 mins and measured for 30 mins by fluorescence based analysis

[18] = biological target: T1, Tyrosine-protein phosphatase non-receptor type 2; remark: listed apart in the source
Description: Inhibition of PTPN2 (unknown origin) using pNPP as substrate measured for 60 mins by fluorescence based analysis

[19] = biological target: T2, Tyrosine-protein phosphatase non-receptor type 1; remark: listed apart in the source
Description: Binding affinity to PTP1B (unknown origin) using pNPP as substrate incubated for 60 mins by fluorescence based analysis

[20] = biological target: T1, Tyrosine-protein phosphatase non-receptor type 2; remark: listed apart in the source
Description: Inhibition of full length human recombinant PTPN2 (1 to 387 residues)

B16-F10 [21] = test: cells; details: Mus musculus; remark: listed apart in the source
Description: Antiproliferative activity against mouse B16-F10 cells assessed as inhibition of cell growth

[22] = biological target: T2, Tyrosine-protein phosphatase non-receptor type 1; remark: listed apart in the source
Description: Inhibition of C-terminal recombinant PTP1B (1 to 405 residues) (unknown origin) using pNPP as substrate incubated for 30 mins by fluorescence based analysis

[23] = biological target: T1, Tyrosine-protein phosphatase non-receptor type 2; remark: listed apart in the source
Description: Inhibition of human PTPN2 using DiFMUP as substrate by fluorescence based analysis

[24] = biological target: T2, Tyrosine-protein phosphatase non-receptor type 1; remark: listed apart in the source
Description: Inhibition of PTP1B (unknown origin) using para-nitrophenol phosphate substrate incubated for 30 mins by fluorescence based analysis

[25] = biological target: T2, Tyrosine-protein phosphatase non-receptor type 1; remark: listed apart in the source
Description: Inhibition of full length His-tagged PTP1B (unknown origin) by mobility shift assay

[26] = biological target: T1, Tyrosine-protein phosphatase non-receptor type 2; remark: listed apart in the source
Description: Inhibition of PTPN2 (unknown origin) by mobility shift assay

[27] = biological target: T2, Tyrosine-protein phosphatase non-receptor type 1; remark: listed apart in the source
Description: Inhibition of PTP1B (unknown origin) by mobility shift assay

[28] = biological target: T1, Tyrosine-protein phosphatase non-receptor type 2; remark: listed apart in the source
Description: Binding affinity to PTPN2 (unknown origin) assessed as dissociation constant by SPR assay

cells = details: Homo sapiens, B16
Description: Inhibition of PTPN2/PTPN1 (unknown origin) in mouse B16 cells assessed as inhibition of IFNgamma-mediated STAT1 phosphorylation

SMILES: O=C(O)COc1c(C(=O)O)sc(-c2cccc(N(C(=O)c3ccccc3)C3CCCCC3)c2)c1Br
- Ki [1]: 32 nM
- Ki [2]: 16 nM

SMILES: O=C1/C(=N\Nc2ccc(S(=O)(=O)O)cc2)C(c2ccc([N+](=O)[O-])cc2)=NN1c1ccccc1
- IC50 [3]: 3790 nM

SMILES: CC(C)(C)C(=O)Nc1ccc2c(c1)C(=O)C(=O)c1ccccc1-2
- IC50 [4]: 950 nM

SMILES: Cc1c(O[C@@H]2O[C@H](CO[C@@H]3OC[C@@H](O)[C@H](O)[C@H]3O)[C@@H](O)[C@H](O)[C@H]2O)cc2c(c1O)C(=O)c1ccc(O)c(O)c1C2=O
- IC50 [5]: 78000 nM

SMILES: Cc1ncsc1-c1ccc([C@H](C)NC(=O)[C@@H]2C[C@@H](O)CN2C(=O)[C@@H](NC(=O)CCCCCCNC(=O)Cn2cc(-c3ccc4cc(O)c(N5CC(=O)NS5(=O)=O)c(F)c4c3)cn2)C(C)(C)C)cc1
- DC50 [6]: 94 nM
- DC50 [7]: 142 nM

SMILES: Cc1ncsc1-c1ccc([C@H](C)NC(=O)[C@@H]2C[C@@H](O)CN2C(=O)[C@@H](NC(=O)CCCCCCCCCCNC(=O)Cn2cc(-c3ccc4cc(O)c(N5CC(=O)NS5(=O)=O)c(F)c4c3)cn2)C(C)(C)C)cc1
- DC50 [6]: 571 nM
- DC50 [7]: 2000 nM

SMILES: Cc1ncsc1-c1ccc([C@H](C)NC(=O)[C@@H]2C[C@@H](O)CN2C(=O)[C@@H](NC(=O)CCCCCNC(=O)Cn2cc(-c3ccc4cc(O)c(N5CC(=O)NS5(=O)=O)c(F)c4c3)cn2)C(C)(C)C)cc1
- DC50 [6]: 217 nM
- DC50 [7]: 13100 nM

SMILES: Cc1ncsc1-c1ccc([C@H](C)NC(=O)[C@@H]2C[C@@H](O)CN2C(=O)[C@@H](NC(=O)CCCCCCCNC(=O)Cn2cc(-c3ccc4cc(O)c(N5CC(=O)NS5(=O)=O)c(F)c4c3)cn2)C(C)(C)C)cc1
- DC50 [6]: 77 nM
- DC50 [7]: 758 nM

SMILES: O=C1CN(c2c(O)cc3c(c2F)C[C@H](NCCCC(F)F)CS3)S(=O)(=O)N1
- IC50 [8]: 2.6 nM

SMILES: CC(C)(O)CCOc1ccc2cc(O)c(N3CC(=O)NS3(=O)=O)c(F)c2c1
- IC50 [9]: 0.6 nM
- IC50 (B16-F10 [10]): 5800 nM

SMILES: O=C1CN(c2c(O)cc3ccccc3c2F)S(=O)(=O)N1
- IC50 [5]: 8.39 nM
- IC50 [11]: 11.4 nM

SMILES: Cc1cnnc(NCc2cc(O)c(N3CC(=O)NS3(=O)=O)c(F)c2)c1
- IC50 [12]: 4 nM
- IC50 (B16-F10 [13]): 410 nM

SMILES: [2H]ON1C(=O)c2cccc3c([N+](=O)[O-])ccc(c23)C1=O
- IC50 [5]: 113000 nM
- IC50 [3]: 198000 nM

SMILES: O=c1c2ccccc2nnn1O
- IC50 [5]: 472000 nM
- IC50 [3]: 369000 nM

SMILES: CC1(C)C[C@@H](Nc2cccc(-c3sc(C(=O)O)c(OCC(=O)O)c3Cl)c2)CCN1S(=O)(=O)Cc1cccc(NC(=O)N2CCC(c3ccc4c5c(cccc35)C(=O)N4[C@H]3CCC(=O)NC3=O)CC2)c1
- DC50 [14]: 44 nM
- inhibition in vivo at 10 mg/kg (B16-F10 [15]): 98%

SMILES: O=P(O)(O)C(F)(F)c1cc2sc(CO)cc2cc1Br
- IC50 [16]: 1500 nM

SMILES: CC(C)CCN[C@@H]1COc2cc(O)c(N3CC(=O)NS3(=O)=O)c(F)c2C1
- IC50 [8]: 15.9 nM

SMILES: O=C1CN(c2c(O)cc3c(c2F)C[C@H](NCCCC(F)F)CO3)S(=O)(=O)N1
- IC50 [8]: 8.85 nM

SMILES: CCN(CN=O)c1ccc(O)c(O)c1
- IC50 [3]: 6500 nM

SMILES: O=C1CN(c2c(O)cc3c(c2F)CC(CNCCC(F)F)N3)S(=O)(=O)N1 (stereo not given)
- IC50 [8]: 15.2 nM

SMILES: O=C1CN(c2c(O)cc3c(c2F)C[C@H](NCCCC(F)F)CC3)S(=O)(=O)N1
- IC50 [11]: < 1 nM
- IC50 [8]: < 0.1 nM
- IC50 (B16-F10 [13]): < 50 nM

SMILES: CCc1ccc(C(=O)NCCCC[C@H](NC(=O)[C@H](Cc2ccc(C(F)(F)P(=O)(O)O)cc2)NC(=O)[C@@H](CC(=O)COC2CC(C)CCC2C(C)C)Cc2ccccc2)C(N)=O)cc1 (stereo not given in full)
- Ki [1]: 4.3 nM
- IC50 [17]: 9.2 nM
- Ki [2]: 34 nM
- IC50 [18]: 9.2 nM
- Ki [19]: 34 nM

SMILES: Cc1cccc(NCc2cc(F)c(N3CC(=O)NS3(=O)=O)c3[nH]ncc23)n1
- IC50 [12]: 199 nM
- IC50 (B16-F10 [13]): > 15000 nM

SMILES: CCCC1CCN(C2CCN(Cc3cc(O)c(N4CC(=O)NS4(=O)=O)c(F)c3)C2)C1 (stereo not given)
- IC50 [20]: 65 nM
- IC50 (B16-F10 [21]): 19300 nM

SMILES: C=C(C)[C@@H]1CC[C@@H](C)[C@@H]2CCC(C)=C[C@@H]21
- IC50 [5]: 27000 nM
- IC50 [22]: 7700 nM

SMILES: C=C(C)C#COc1cc(C(N)=O)cc2c(Br)c(C(F)(F)P(=O)(O)O)sc12
- IC50 [23]: 13.7 nM
- IC50 [24]: 132 nM

SMILES: CC(C)C[C@@H]1NC(=O)[C@H](Cc2ccc(OC(F)(C(=O)O)C(=O)O)cc2)NC(=O)[C@H](CCC(=O)O)NC(=O)[C@H](CC(=O)O)NC(=O)[C@H](C)NC(=O)[C@H](CC(=O)O)NC(=O)SC[C@H](C(N)=O)NC1=O
- Ki [2]: 170 nM

SMILES: CC(C)CCNc1ccc2cc(O)c(N3CC(=O)NS3(=O)=O)c(F)c2c1
- IC50 [9]: 1 nM
- IC50 [25]: < 1 nM

SMILES: NC(=O)c1cc2cc(Br)c(C(F)(F)P(=O)(O)O)cc2s1
- IC50 [16]: 280 nM

SMILES: CC(C)CCN[C@H]1CCc2cc(O)c(N3CC(=O)NS3(=O)=O)c(F)c2C1
- IC50 [26]: 10 nM
- IC50 [27]: 10 nM
- IC50 (B16-F10 [13]): 1000 nM

SMILES: Cn1c(=O)n(C2CCC(=O)NC2=O)c2ccc(C3CCN(C(=O)Nc4cccc(CS(=O)(=O)N5CC[C@H](Nc6cccc(-c7sc(C(=O)O)c(OCC(=O)O)c7Cl)c6)CC5(C)C)c4)CC3)cc21 (stereo not given in full)
- Kd [28]: 52 nM
- DC50 [14]: 44 nM

SMILES: CC(C)CC1CCN(C2CCN(Cc3cc(O)c(N4CC(=O)NS4(=O)=O)c(F)c3)C2)C1 (stereo not given)
- IC50 [20]: 66 nM
- IC50 (B16-F10 [21]): 8440 nM

SMILES: O=C1CN(c2c(O)cc(CNc3ncc[nH]3)cc2F)S(=O)(=O)N1
- IC50 [12]: 10 nM
- IC50 (B16-F10 [13]): 160 nM

SMILES: Cn1ccnc1NCc1cc(O)c(N2CC(=O)NS2(=O)=O)c(F)c1
- IC50 [12]: 6 nM
- IC50 (B16-F10 [13]): 180 nM

SMILES: CC(C)CCN[C@@H]1CSc2cc(O)c(N3CC(=O)NS3(=O)=O)c(F)c2C1
- IC50 [8]: 1.34 nM

SMILES: CC(C)CCOc1ccc2cc(O)c(N3CC(=O)NS3(=O)=O)c(F)c2c1
- IC50 [9]: 0.58 nM
- IC50 [25]: 0.63 nM

SMILES: CC(C)CCN[C@@H]1CCc2cc(O)c(N3CC(=O)NS3(=O)=O)c(F)c2C1 [OSUNPROTAFIB]
- IC50 [26]: 2.8 nM
- IC50 (B16-F10 [13]): 64 nM
- EC50 (cells): 180 nM

SMILES: COc1ccc2cc(O)c(N3CC(=O)NS3(=O)=O)c(F)c2c1 [TEGEPROTAFIB]
- IC50 [9]: 1 nM
- IC50 [25]: 1 nM
